Data from US20120029187A1, “HALOALKYLSULFONANILIDE DERIVATIVE” (Nissan Chemical Industries, Ltd., priority 2009, published 2012).

Columns and labels:
Assay type in all cases: in vivo
barnyardgrass [1] = assay: Test Example 1: herbicidal effects in preemergence treatment under submerged conditions; details: dose 2.52 g/a
How it was run: (§1)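 Alluvial soil flooded to 4 cm depth; barnyardgrass, bulrush and ducksalad sown and 2.5-leaf rice seedlings transplanted. Same day, water-diluted emulsifiable concentrates applied to the water surface at set doses (g/a). Kept at 25–30 °C in greenhouse; effects scored 0–5 by mortality after three weeks.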

bulrush [2] = assay: as above; details: dose 2.52 g/a
How it was run: as §1

ducksalad [3] = assay: as above; details: dose 2.52 g/a
How it was run: as §1

transplanted rice = assay: Test Example 1: preemergence treatment under submerged conditions, effect on crop; details: dose 2.52 g/a
How it was run: as §1

barnyardgrass [4] = assay: Test Example 2: herbicidal effects during the vegetation period under submerged conditions; details: treatment during the vegetation period under submerged conditions; dose 2.52 g/a
How it was run: (§2)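 Barnyardgrass, bulrush and ducksalad were co-sown in alluvial soil flooded to 4 cm and grown in a greenhouse at 25 to 30° C. At the 1- or 2-leaf stage, water-diluted emulsifiable concentrates went onto the water surface at set doses (g/a). Herbicidal effect was scored three weeks later on a graded scale.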

bulrush [5] = assay: as above; details: treatment during the vegetation period under submerged conditions; dose 2.52 g/a
How it was run: as §2

ducksalad [6] = assay: as above; details: treatment during the vegetation period under submerged conditions; dose 2.52 g/a
How it was run: as §2

Italian ryegrass [7] = assay: Test Example 3: herbicidal effects in soil treatment; details: dose 6.3 g/a
How it was run: (§3)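 Seeds were sown in sterilized diluvial soil and covered with about 1.5 cm of soil. Compounds, formulated as emulsifiable concentrates and diluted with water, were sprayed evenly over the soil surface at set doses in g/a. Herbicidal effect was scored on a rating scale three weeks later.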

barnyardgrass [8] = assay: as above; details: dose 6.3 g/a
How it was run: as §3

common chickweed [9] = assay: as above; details: dose 6.3 g/a
How it was run: as §3

common lambsquater [10] = assay: as above; details: dose 6.3 g/a
How it was run: as §3

common ragweed [11] = assay: as above; details: dose 6.3 g/a
How it was run: as §3

giant foxtail [12] = assay: as above; details: dose 6.3 g/a
How it was run: as §3

large crabgrass [13] = assay: as above; details: dose 6.3 g/a
How it was run: as §3

posumbu knotweed [14] = assay: as above; details: dose 6.3 g/a
How it was run: as §3

redroot pigweed [15] = assay: as above; details: dose 6.3 g/a
How it was run: as §3

velvetleaf [16] = assay: as above; details: dose 6.3 g/a
How it was run: as §3

water foxtail [17] = assay: as above; details: dose 6.3 g/a
How it was run: as §3

wild oat [18] = assay: as above; details: dose 6.3 g/a
How it was run: as §3

Italian ryegrass [19] = assay: Test Example 4: herbicidal effect in foliage treatment; details: dose 6.3 g/a, three weeks after application
How it was run: (§4)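 14-day greenhouse-grown plants (25–30° C) sprayed on foliage with diluted EC; dose as g/a; effect graded after 3 weeks.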

barnyardgrass [20] = assay: as above; details: dose 6.3 g/a, three weeks after application
How it was run: as §4

beadstraw = assay: as above; details: dose 6.3 g/a, three weeks after application
How it was run: as §4

common chickweed [21] = assay: as above; details: dose 6.3 g/a, three weeks after application
How it was run: as §4

common lambsquater [22] = assay: as above; details: dose 6.3 g/a, three weeks after application
How it was run: as §4

common ragweed [23] = assay: as above; details: dose 6.3 g/a, three weeks after application
How it was run: as §4

giant foxtail [24] = assay: as above; details: dose 6.3 g/a, three weeks after application
How it was run: as §4

large crabgrass [25] = assay: as above; details: dose 6.3 g/a, three weeks after application
How it was run: as §4

posumbu knotweed [26] = assay: as above; details: dose 6.3 g/a, three weeks after application
How it was run: as §4

redroot pigweed [27] = assay: as above; details: dose 6.3 g/a, three weeks after application
How it was run: as §4

velvetleaf [28] = assay: as above; details: dose 6.3 g/a, three weeks after application
How it was run: as §4

water foxtail [29] = assay: as above; details: dose 6.3 g/a, three weeks after application
How it was run: as §4

wild oat [30] = assay: as above; details: dose 6.3 g/a, three weeks after application
How it was run: as §4

SMILES: CCOC(=O)N(c1ccccc1CN1CCOC(C)C1=O)S(=O)(=O)C(F)(F)F (centres unmarked) [Compound I-5, 2-methyl-4-[2-(N-ethoxycarbonyl-N-trifluoromethanesulfonyl)aminobenzyl]-1,4-oxazinan-3-one]
- A: barnyardgrass, herbicidal effect (evaluation scale 0-5) (barnyardgrass [1]): 5 (mortality of 90% or above (nearly complete death))
- B: bulrush, herbicidal effect (evaluation scale 0-5) (bulrush [2]): 5 (mortality of 90% or above (nearly complete death))
- C: ducksalad, herbicidal effect (evaluation scale 0-5) (ducksalad [3]): 5 (mortality of 90% or above (nearly complete death))
- a: transplanted rice, effect on crop (evaluation scale 0-5) (transplanted rice): 0 (mortality of less than 5% (almost ineffective))
- A: barnyardgrass, herbicidal effect (evaluation scale 0-5) (barnyardgrass [4]): 5 (mortality of 90% or above (nearly complete death))
- B: bulrush, herbicidal effect (evaluation scale 0-5) (bulrush [5]): 5 (mortality of 90% or above (nearly complete death))
- C: ducksalad, herbicidal effect (evaluation scale 0-5) (ducksalad [6]): 5 (mortality of 90% or above (nearly complete death))
- H: Italian ryegrass, herbicidal effect (evaluation scale 0-5) (Italian ryegrass [7]): 1 (mortality of at least 5% and less than 20%)
- A: barnyardgrass, herbicidal effect (evaluation scale 0-5) (barnyardgrass [8]): 5 (mortality of 90% or above (nearly complete death))
- N: common chickweed, herbicidal effect (evaluation scale 0-5) (common chickweed [9]): 5 (mortality of 90% or above (nearly complete death))
- L: common lambsquater, herbicidal effect (evaluation scale 0-5) (common lambsquater [10]): 5 (mortality of 90% or above (nearly complete death))
- J: common ragweed, herbicidal effect (evaluation scale 0-5) (common ragweed [11]): 4 (mortality of at least 70% and less than 90%)
- E: giant foxtail, herbicidal effect (evaluation scale 0-5) (giant foxtail [12]): 5 (mortality of 90% or above (nearly complete death))
- D: large crabgrass, herbicidal effect (evaluation scale 0-5) (large crabgrass [13]): 5 (mortality of 90% or above (nearly complete death))
- M: posumbu knotweed, herbicidal effect (evaluation scale 0-5) (posumbu knotweed [14]): 4 (mortality of at least 70% and less than 90%)
- K: redroot pigweed, herbicidal effect (evaluation scale 0-5) (redroot pigweed [15]): 4 (mortality of at least 70% and less than 90%)
- I: velvetleaf, herbicidal effect (evaluation scale 0-5) (velvetleaf [16]): 4 (mortality of at least 70% and less than 90%)
- G: water foxtail, herbicidal effect (evaluation scale 0-5) (water foxtail [17]): 5 (mortality of 90% or above (nearly complete death))
- F: wild oat, herbicidal effect (evaluation scale 0-5) (wild oat [18]): 3 (mortality of at least 40% and less than 70%)
- H: Italian ryegrass, herbicidal effect (Italian ryegrass [19]): 4 (mortality of at least 70% and less than 90%)
- A: barnyardgrass, herbicidal effect (barnyardgrass [20]): 5 (mortality of 90% or above (nearly complete death))
- O: beadstraw, herbicidal effect (beadstraw): 3 (mortality of at least 40% and less than 70%)
- N: common chickweed, herbicidal effect (common chickweed [21]): 4 (mortality of at least 70% and less than 90%)
- L: common lambsquater, herbicidal effect (common lambsquater [22]): 3 (mortality of at least 40% and less than 70%)
- J: common ragweed, herbicidal effect (common ragweed [23]): 4 (mortality of at least 70% and less than 90%)
- E: giant foxtail, herbicidal effect (giant foxtail [24]): 4 (mortality of at least 70% and less than 90%)
- D: large crabgrass, herbicidal effect (large crabgrass [25]): 5 (mortality of 90% or above (nearly complete death))
- M: posumbu knotweed, herbicidal effect (posumbu knotweed [26]): 4 (mortality of at least 70% and less than 90%)
- K: redroot pigweed, herbicidal effect (redroot pigweed [27]): 3 (mortality of at least 40% and less than 70%)
- I: velvetleaf, herbicidal effect (velvetleaf [28]): 4 (mortality of at least 70% and less than 90%)
- G: water foxtail, herbicidal effect (water foxtail [29]): 5 (mortality of 90% or above (nearly complete death))
- F: wild oat, herbicidal effect (wild oat [30]): 2 (mortality of at least 20% and less than 40%)
